The text below walks through data of article PMC3879575, “Evidence That GH115 α-Glucuronidase Activity, Which Is Required to Degrade Plant Biomass, Is Dependent on Conformational Flexibility” (The Journal of Biological Chemistry, 2013).

Experiment [1] addresses T1, BoAgu115A (BACOVA_03449) (Bacteroides ovatus, UniProt A0ABU3IS40).
T1 construct: mature form (signal peptide removed), N-terminal His6 tag (pET28a), E. coli BL21 DE3, 824 residues, 85 kDa, homodimer; modelled residues 33-856
Put plainly: coupled alpha-D-glucuronidase assay kit, NADH at […] nm. The experiment is classed as biochemical. The note with it: PC buffer (50 mM sodium phosphate, 12 mM citrate) pH 6.5, 1 mg/ml BSA, 37 °C.

The target of experiment [2] is BoAgu115A (BACOVA_03449), GH115 α-glucuronidase of Bacteroides ovatus (Bacteroides ovatus). The experiment can be described thus: AUC; sedimentation velocity, interference optics, 48,000 rpm, 20 °C, sample volume 400 μl.
For experiment [3], the target named is T1, BoAgu115A (BACOVA_03449). The experiment can be described thus: X-ray crystal structure, […] Å. The note with it: crystals soaked with 300 mM GlcA; pH 5.5; active site; open-chain form. The experiment is classed as binding.

For the molecule UXX, the Km on BoAgu115A (BACOVA_03449) [1] was 19.5 mM.

As to `CO[C@H]1[C@H](O)[C@@H](O)[C@@H](O[C@H]2[C@H](O[C@@H]3CO[C@@H](O[C@@H]4COC(O)[C@H](O)[C@H]4O)[C@H](O)[C@H]3O)OC[C@@H](O[C@@H]3OC[C@@H](O)[C@H](O)[C@H]3O)[C@@H]2O)O[C@@H]1C(=O)O` (stereo partly shown) [XUXX], the Km at BoAgu115A (BACOVA_03449) [1] was determined as 4.5 mM. Take “BoAgu115A (BACOVA_03449), GH115 α-glucuronidase of Bacteroides ovatus (enzyme)”: in experiment [2], the stoichiometry N worked out at 2. Consider `O=C[C@H](O)[C@@H](O)[C@H](O)[C@H](O)C(=O)O` [GlcA], for which the “X-ray crystal structure, 2.14 Å” value on BoAgu115A (BACOVA_03449) [3] was “BoAgu115A was co-crystallized with GlcA, which revealed electron density for the uronic acid”.
